Patent US4789736A, “Complexes of technetium-99m with propylene amine oximes” (Amersham International plc, priority 1985, dated 1988)
Like-named read-outs stand apart in the source and are kept apart here.

What was measured:
[1] = Clinical comparison of dl and meso diastereoisomers of Compound 1, whole body scanning (Example 25a); assay type: in vivo, normal volunteer subjects (human); details: 20 minutes p.i.; mean; human
Method: All clinical studies, involving comparisons between the Tc-99m complexes of dl and meso, and d,l and dl stereoisomers of Compound 1 were conducted in normal volunteer subjects at Aberdeen Royal Infirmary.
(a) Comparison of dl and meso diastereoisomers of Compound 1
Data is then taken from area of interest studies employing a whole body scanning device.

[2] = Clinical comparison of d, l and dl stereoisomers of Compound 1 (Example 25b); assay type: in vivo, normal volunteers (human); details: 30 minutes p.i.; mean of three studies; human
Method: The following table gives the mean of three studies for each stereoisomer, of percentage of injected dose in normal volunteers at 30 minutes p.i.

[3] = Rat biodistribution of Tc-99m complexes of separated diastereoisomers of compound 1 (Example 23); assay type: in vivo, rats; details: for % id/organ, Blood / % id/organ, Brain / % id/organ, Liver: rats
Source text: The experiment of Example 22 was repeated using the separated diastereoisomers of compound 1. The results are given in the Table below and should be compared to those for compound 1 (the mixture) in the Table in […].

[4] = Rat biodistribution of Tc-99m complexes from isolated stereoisomers (Example 24); details: for % id/organ, Blood / % id/organ, Brain / % id/organ, Heart / % id/organ, Liver: (a) diastereoisomers, rats, mean from 3 animals; for difference in brain uptake, dl-isomer versus meso-isomer: see Example 24
Method: (§1) 0.1 ml of the Tc-99m complex solution was administered by intravenous injection (lateral tail vein) to each of five or six rats (140-220 g). The injected dose was equivalent to approximately 1 mCi of Tc-99m. Three rats were sacrificed at 2 minutes post injection, and 3 at 1 hour or 2 at 2 hours post injection. At dissection, the organs and blood samples shown in the following table were taken, and assayed for radioactivity. The uptake in each organ or tissue was calculated as a percentage of the total activity recovered.
(§2) Data in Tables (a) and (b) are the mean from 3 animals at each time point.

[5] = rat, in vivo
Method: as §1, §2

[6] = Animal biodistribution of Tc-99m complexes of ligands, no separation of stereoisomers (Example 22); assay type: in vivo, rats; details: i.v. rats
Method: The ratio of diastereoisomers in the Tc-99m complexes used in this experiment is not known.
The results at 2 minutes and 1 hour p.i. are the mean of 3 animals.
The results at 2 hours p.i. are the mean of 2 animals.

## CC(=NO)[C@H](C)NCC(C)(C)CN[C@@H](C)C(C)=NO (relative stereo) [Compound 1 d1, dl-4,8-Diaza-3,6,6,9-tetramethylundecane-2,10-dione bis oxime]
[1]
  % injected activity, Bladder + Urine: 2.28 % injected activity
  % injected activity, Brain: 4.22 % injected activity
  % injected activity, Kidneys: 3.50 % injected activity
  % injected activity, Liver: 10.22 % injected activity
[2]
  percentage of injected dose, Brain: 4.16 percentage of injected dose
  percentage of injected dose, Kidney: 3.03 percentage of injected dose
  percentage of injected dose, Liver: 10.73 percentage of injected dose
[3]; 2 min p.i.
  % id/organ, Blood: 11.42 % id/organ
  % id/organ, Brain: 1.99 % id/organ
  % id/organ, Liver: 9.42 % id/organ
[3]; 1 hour p.i.
  % id/organ, Blood: 10.17 % id/organ
  % id/organ, Brain: 1.90 % id/organ
  % id/organ, Liver: 9.25 % id/organ
[3]; dl versus meso, the better is the dl-isomer
  difference in brain uptake of the two isomers (factor): 2.3
[4]; 2 mins pi
  % id/organ, Blood: 11.0 % id/organ
  % id/organ, Brain: 2.1 % id/organ
  % id/organ, Heart: 1.2 % id/organ
  % id/organ, Liver: 11.3 % id/organ
[4]; 1 hr pi
  % id/organ, Blood: 8.6 % id/organ
  % id/organ, Brain: 1.6 % id/organ
  % id/organ, Heart: 0.7 % id/organ
  % id/organ, Liver: 11.9 % id/organ
[4]; in words
  brain retention and brain imaging, dl-isomer versus meso-isomer: surprisingly superior to the complex of the meso-isomer

## CC(=NO)[C@H](C)NCCCN[C@@H](C)C(C)=NO (relative stereo) [Compound 2 d1]
[4]; 2 mins pi
  % id/organ, Blood: 10.5 % id/organ
  % id/organ, Brain: 1.8 % id/organ
  % id/organ, Heart: 1.1 % id/organ
  % id/organ, Liver: 11.6 % id/organ
[4]; 1 hr pi
  % id/organ, Blood: 7.8 % id/organ
  % id/organ, Brain: 1.5 % id/organ
  % id/organ, Heart: 0.7 % id/organ
  % id/organ, Liver: 9.4 % id/organ
[4]; in words
  difference in brain uptake, dl-isomer versus meso-isomer: do not show any marked difference in brain uptake

## CC(=NO)C(C)NCC(C)CNC(C)C(C)=NO (centres unmarked) [Compound 1 1]
[5]; 2 min
  % id/organ, Blood: 11.0 % id/organ
  % id/organ, Brain: 2.6 % id/organ
  % id/organ, Liver: 9.6 % id/organ
[5]; 60 min
  % id/organ, Blood: 11.1 % id/organ
  % id/organ, Brain: 2.2 % id/organ
  % id/organ, Liver: 7.7 % id/organ
[2]
  percentage of injected dose, Brain: 4.30 percentage of injected dose
  percentage of injected dose, Kidney: 4.0 percentage of injected dose
  percentage of injected dose, Liver: 8.06 percentage of injected dose

## CC(=NO)[C@H](C)NCC(C)(C)CN[C@H](C)C(C)=NO [Compound 1 meso, meso-4,8-Diaza-3,6,6,9-tetramethylundecane-2,10-dione bis oxime]
[1]
  % injected activity, Bladder + Urine: 0.6 % injected activity
  % injected activity, Brain: 1.85 % injected activity
  % injected activity, Kidneys: 1.3 % injected activity
  % injected activity, Liver: 16.6 % injected activity
[3]; 2 min p.i.
  % id/organ, Blood: 5.33 % id/organ
  % id/organ, Brain: 0.78 % id/organ
  % id/organ, Liver: 26.86 % id/organ
[3]; 1 hour p.i.
  % id/organ, Blood: 3.17 % id/organ
  % id/organ, Brain: 0.53 % id/organ
  % id/organ, Liver: 24.24 % id/organ
[4]; 2 mins pi
  % id/organ, Blood: 5.0 % id/organ
  % id/organ, Brain: 1.1 % id/organ
  % id/organ, Heart: 0.6 % id/organ
  % id/organ, Liver: 19.9 % id/organ
[4]; 1 hr pi
  % id/organ, Blood: 3.1 % id/organ
  % id/organ, Brain: 0.7 % id/organ
  % id/organ, Heart: 0.2 % id/organ
  % id/organ, Liver: 23.7 % id/organ

## CC(=NO)[C@H](C)NCCCN[C@H](C)C(C)=NO [Compound 2 meso]
[4]; 2 mins pi
  % id/organ, Blood: 6.9 % id/organ
  % id/organ, Brain: 1.7 % id/organ
  % id/organ, Heart: 0.6 % id/organ
  % id/organ, Liver: 17.9 % id/organ
[4]; 1 hr pi
  % id/organ, Blood: 2.8 % id/organ
  % id/organ, Brain: 1.4 % id/organ
  % id/organ, Heart: 0.2 % id/organ
  % id/organ, Liver: 20.7 % id/organ
[4]; in words
  difference in brain uptake, dl-isomer versus meso-isomer: do not show any marked difference in brain uptake

## CCC(NCCCNC(CC)C(C)=NO)C(C)=NO (centres unmarked) [Compound 3, 4,8-Diaza-3,9-diethylundecane-2,10-dione bis oxime]
[6]; 2 min pi, mean of 3 animals
  % id/organ, Blood: 6.8 % id/organ
  % id/organ, Brain: 1.1 % id/organ
  % id/organ, Heart: 0.2 % id/organ
  % id/organ, Liver: 27.8 % id/organ
[6]; 2 hr pi, mean of 2 animals
  % id/organ, Blood: 2.1 % id/organ
  % id/organ, Brain: 0.7 % id/organ
  % id/organ, Heart: 0.1 % id/organ
  % id/organ, Liver: 17.0 % id/organ

## CCC(=NO)C(C)NCCCNC(C)C(CC)=NO (centres unmarked) [Compound 4, 5,9-Diaza-4,10-dimethyltridecane-3,11-dione bis oxime]
[6]; 2 min pi, mean of 3 animals
  % id/organ, Blood: 13.4 % id/organ
  % id/organ, Brain: 1.6 % id/organ
  % id/organ, Liver: 15.6 % id/organ
[6]; 1 hr pi, mean of 3 animals
  % id/organ, Blood: 5.7 % id/organ
  % id/organ, Brain: 1.5 % id/organ
  % id/organ, Liver: 12.7 % id/organ

## CCCC(=NO)C(C)NCCCNC(C)C(CCC)=NO (centres unmarked) [Compound 5, 6,10-Diaza-5,11-dimethylpentadecane-4,12-dione bis oxime]
[6]; 2 min pi, mean of 3 animals
  % id/organ, Blood: 10.5 % id/organ
  % id/organ, Brain: 0.8 % id/organ
  % id/organ, Liver: 18.0 % id/organ
[6]; 1 hr pi, mean of 3 animals
  % id/organ, Blood: 2.8 % id/organ
  % id/organ, Brain: 0.6 % id/organ
  % id/organ, Liver: 12.1 % id/organ

## CCC(=NO)C(C)NCC(C)(C)CNC(C)C(CC)=NO (centres unmarked) [Compound 6, 5,9-Diaza-4,7,7,10-tetramethyltridecane-3,11-dione bis oxime]
[6]; 2 min pi, mean of 3 animals
  % id/organ, Blood: 5.8 % id/organ
  % id/organ, Brain: 1.2 % id/organ
  % id/organ, Heart: 0.4 % id/organ
  % id/organ, Liver: 19.6 % id/organ
[6]; 2 hr pi, mean of 2 animals
  % id/organ, Blood: 2.6 % id/organ
  % id/organ, Brain: 0.4 % id/organ
  % id/organ, Heart: 0.2 % id/organ
  % id/organ, Liver: 13.5 % id/organ

## CCC(CC)(CNC(C)C(C)=NO)CNC(C)C(C)=NO (centres unmarked) [Compound 7, 4,8-Diaza-6,6-diethyl-3,9-dimethylundecane-2,10-dione bis oxime]
[6]; 2 min pi, mean of 3 animals
  % id/organ, Blood: 7.4 % id/organ
  % id/organ, Brain: 1.0 % id/organ
  % id/organ, Liver: 20.6 % id/organ
[6]; 1 hr pi, mean of 3 animals
  % id/organ, Blood: 3.3 % id/organ
  % id/organ, Brain: 0.5 % id/organ
  % id/organ, Liver: 36.5 % id/organ

## CC(=NO)C(NCCCNC(C(C)=NO)c1ccccc1)c1ccccc1 (centres unmarked) [Compound 10, 4,8-Diaza-3,9-diphenylundecane-2,10-dione bis oxime]
[6]; 2 min pi, mean of 3 animals
  % id/organ, Blood: 14.0 % id/organ
  % id/organ, Brain: 0.4 % id/organ
  % id/organ, Heart: 0.5 % id/organ
  % id/organ, Liver: 32.9 % id/organ
[6]; 2 hr pi, mean of 2 animals
  % id/organ, Blood: 2.7 % id/organ
  % id/organ, Brain: 0.6 % id/organ
  % id/organ, Heart: 0.3 % id/organ
  % id/organ, Liver: 16.9 % id/organ

## CC(=NO)C(C)NCC(C)CNC(C)C(C)=NO (centres unmarked) [Compound 11, 4,8-Diaza-3,6,9-trimethylundecane-2,10-dione bis oxime]
[6]; 2 min pi, mean of 3 animals
  % id/organ, Blood: 11.9 % id/organ
  % id/organ, Brain: 1.3 % id/organ
  % id/organ, Heart: 0.8 % id/organ
  % id/organ, Liver: 12.3 % id/organ
[6]; 1 hr pi, mean of 3 animals
  % id/organ, Blood: 4.7 % id/organ
  % id/organ, Brain: 1.0 % id/organ
  % id/organ, Heart: 0.4 % id/organ
  % id/organ, Liver: 10.2 % id/organ

## CC(=NO)C(C)NC(C)CC(C)NC(C)C(C)=NO (centres unmarked) [Compound 12, 4,8-Diaza-3,5,7,9-tetramethylundecane-2,10 bis oxime]
[6]; 2 min pi, mean of 3 animals
  % id/organ, Blood: 8.6 % id/organ
  % id/organ, Brain: 1.0 % id/organ
  % id/organ, Heart: 0.5 % id/organ
  % id/organ, Liver: 23.9 % id/organ
[6]; 1 hr pi, mean of 3 animals
  % id/organ, Blood: 6.0 % id/organ
  % id/organ, Brain: 0.9 % id/organ
  % id/organ, Heart: 0.3 % id/organ
  % id/organ, Liver: 19.7 % id/organ

## CC(C)C(=NO)C(C)NCCCNC(C)C(=NO)C(C)C (centres unmarked) [Compound 13, 5,9-Diaza-2,4,10,12-tetramethyltridecane-3,11-dione bis oxime]
[6]; 2 min pi, mean of 3 animals
  % id/organ, Blood: 15.2 % id/organ
  % id/organ, Brain: 0.5 % id/organ
  % id/organ, Heart: 0.6 % id/organ
  % id/organ, Liver: 15.9 % id/organ
[6]; 1 hr pi, mean of 3 animals
  % id/organ, Blood: 7.2 % id/organ
  % id/organ, Brain: 0.2 % id/organ
  % id/organ, Heart: 0.2 % id/organ
  % id/organ, Liver: 12.5 % id/organ
